The assay concerns HCV replicon in cell line ET (luc-ubi-neo/ET), Huh7 human hepatoma cell line. Description: HCV subgenomic replicon assay (luciferase end point). It counts as cell-based. Conditions: read-out: Antiviral activity EC50.
[1] abbreviates: Hepatitis C virus, Huh-7, Table 15, HCV replicon.
Where [2] appears, read: Hepatitis C virus, Huh-7, Table 13, HCV replicon.
[3] abbreviates: Hepatitis C virus, Huh-7, Table 11, HCV replicon.

Where two headings read alike, the source gives them in different places. Starred links: 1 amine or outer side, 2 acyl side, 3 side chain; linkers in the order of their positions; H or OH if unused. Non-standard residues stand in square brackets, D forms with d. Residues, ends and D or L forms follow the SMILES beside them. ξ: configuration not given here. X12 = COc1ccc(COC(C)(C)C[C@@H](C(=O)[*:2])N(C)[*:1])cc1; MeBmt = C/C=C/C[C@@H](C)[C@@H](O)[C@H](NC)C(=O)O; X3 = CN([C@H](SCCCN1CCOCC1)C(=O)[*:2])[*:1]; X1 = CCN(CC)CCCS[C@H](C(=O)[*:2])N(C)[*:1]; X7 = CCN(CC)CCS[C@@H](C(=O)[*:2])N(C)[*:1]; X13 = CCOCOC(C)(C)CC(C(=O)[*:2])N(C)[*:1]; X2 = CCN(CC)CCS[C@H](C(=O)[*:2])N(C)[*:1]; X4 = CC=CCC(C)C(O)C(C(=O)[*:2])N(C)[*:1]; X9 = CN(C(SCCCN1CCOCC1)C(=O)[*:2])[*:1]; NMeIle(3ξ) = CCC(C)[C@H](NC)C(=O)O; NMeL = CN[CH](CC(C)C)C(=O)O; NMeV = CN[CH](C(=O)O)C(C)C; Abu = CC[CH](N)C(=O)O

Our source for the EC50 values is patent US20160039879A1, “NOVEL CYCLOSPORIN DERIVATIVES AND USES THEREOF” (S&T Global Inc., priority 2013, published 2016).

What is called EC50 is the concentration that produces a half-maximal response.

With `C/C=C/C[C@@H](C)[C@@H](O)[C@H]1C(=O)N[C@@H](CC)C(=O)N(C)[C@H](CSCCCCC(CO)CO)C(=O)N(C)[C@@H](CC(C)(C)O)C(=O)N[C@@H](C(C)C)C(=O)N(C)[C@@H](CC(C)C)C(=O)N[C@@H](C)C(=O)N[C@H](C)C(=O)N(C)[C@@H](CC(C)C)C(=O)N(C)[C@@H](CC(C)C)C(=O)N(C)[C@@H](C(C)C)C(=O)N1C`, under setting [1], the half-maximal effective concentration (EC50) turned out to be 0.07 µM.
For the compound `C/C=C/C[C@@H](C)[C@@H](O)[C@H]1C(=O)N[C@@H](CC)C(=O)N(C)[C@H](CSCC[C@H](CO)CCC)C(=O)N(C)[C@@H](CC(C)(C)O)C(=O)N[C@@H](C(C)C)C(=O)N(C)[C@@H](CC(C)C)C(=O)N[C@@H](C)C(=O)N[C@H](C)C(=O)N(C)[C@@H](CC(C)C)C(=O)N(C)[C@@H](CC(C)C)C(=O)N(C)[C@@H](C(C)C)C(=O)N1C`, the EC50 under setting [1] worked out at 0.07 µM.
As for `C/C=C/C[C@@H](C)[C@@H](O)[C@H]1C(=O)N[C@@H](CC)C(=O)N(C)[C@H](CSCC[C@@H](CO)CCC)C(=O)N(C)[C@@H](CC(C)(C)O)C(=O)N[C@@H](C(C)C)C(=O)N(C)[C@@H](CC(C)C)C(=O)N[C@@H](C)C(=O)N[C@H](C)C(=O)N(C)[C@@H](CC(C)C)C(=O)N(C)[C@@H](CC(C)C)C(=O)N(C)[C@@H](C(C)C)C(=O)N1C`, the concentration for a half-maximal effect (EC50) under setting [1] turned out to be 0.07 µM.
Same read-out and setting: next, `C/C=C/C[C@@H](C)[C@@H](O)[C@H]1C(=O)N[C@@H](CC)C(=O)N(C)[C@H](CSCCCCC(C)(C)O)C(=O)N(C)[C@@H](CC(C)(C)O)C(=O)N[C@@H](C(C)C)C(=O)N(C)[C@@H](CC(C)C)C(=O)N[C@@H](C)C(=O)N[C@H](C)C(=O)N(C)[C@@H](CC(C)C)C(=O)N(C)[C@@H](CC(C)C)C(=O)N(C)[C@@H](C(C)C)C(=O)N1C`: 0.06 µM.
Regarding `C/C=C/C[C@@H](C)[C@@H](O)[C@H]1C(=O)N[C@@H](CC)C(=O)N(C)[C@H](CSC/C(=C/CN(CC)CC)CCC)C(=O)N(C)[C@@H](CC(C)(C)O)C(=O)N[C@@H](C(C)C)C(=O)N(C)[C@@H](CC(C)C)C(=O)N[C@@H](C)C(=O)N[C@H](C)C(=O)N(C)[C@@H](CC(C)C)C(=O)N(C)[C@@H](CC(C)C)C(=O)N(C)[C@@H](C(C)C)C(=O)N1C`, under setting [1], the half-maximal effective concentration (EC50) came out at 0.06 µM.
For the compound `C/C=C/C[C@@H](C)[C@@H](O)[C@H]1C(=O)N[C@@H](CC)C(=O)N(C)[C@H](SCCCN2CCOCC2)C(=O)N(C)[C@@H](CC(C)(C)OCc2ccc(OC)cc2)C(=O)N[C@@H](C(C)C)C(=O)N(C)[C@@H](CC(C)C)C(=O)N[C@@H](C)C(=O)N[C@H](C)C(=O)N(C)[C@@H](CC(C)C)C(=O)N(C)[C@@H](CC(C)C)C(=O)N(C)[C@@H](C(C)C)C(=O)N1C` (cyclo(A[dA][NMeL][NMeL][NMeV][MeBmt][Abu][X3][X12]V[NMeL])), the EC50 (Table 11, HCV replicon) is 0.28 µM.
`CC=CCC(C)C(O)C1C(=O)NC(CC)C(=O)N(C)C(SCCCN2CCOCC2)C(=O)N(C)C(CC(C)(C)OCOCC)C(=O)NC(C(C)C)C(=O)N(C)C(CC(C)C)C(=O)NC(C)C(=O)NC(C)C(=O)N(C)C(CC(C)C)C(=O)N(C)C(CC(C)C)C(=O)N(C)C(C(C)C)C(=O)N1C` (stereo not drawn) (cyclo([X4][Abu][X9][X13]V[NMeL]AA[NMeL][NMeL][NMeV]); configuration not given here): the concentration for a half-maximal effect (EC50) (Table 11, HCV replicon) is 0.16 µM.
Consider `C/C=C/C[C@@H](C)[C@@H](O)[C@H]1C(=O)N[C@@H](CC)C(=O)N(C)[C@H](CSCCN(C)C)C(=O)N(C)[C@@H](CC(C)C)C(=O)N[C@@H](C(C)C)C(=O)N(C)[C@@H](CC(C)C)C(=O)N[C@@H](C)C(=O)N[C@H](C)C(=O)N(C)[C@@H](CC(C)C)C(=O)N(C)[C@@H](CC(C)C)C(=O)N(C)[C@@H](C(C)C)C(=O)N1C` (single isomer, unassigned) [Example 6, isomer B], for which, under setting [2], the EC50 was determined as 0.17 µM.
Consider `C/C=C/C[C@@H](C)[C@@H](O)[C@H]1C(=O)N[C@@H](CC)C(=O)N(C)[C@H](CSCCN(CC)CC)C(=O)N(C)[C@@H](CC(C)C)C(=O)N[C@@H](C(C)C)C(=O)N(C)[C@@H](CC(C)C)C(=O)N[C@@H](C)C(=O)N[C@H](C)C(=O)N(C)[C@@H](CC(C)C)C(=O)N(C)[C@@H](CC(C)C)C(=O)N(C)[C@@H](C(C)C)C(=O)N1C` (single isomer, unassigned) [Example 7, isomer B], for which the EC50 under setting [2] came out at 0.16 µM.
Take `C/C=C/C[C@@H](C)[C@@H](O)[C@H]1C(=O)N[C@@H](CC)C(=O)N(C)[C@H](SCCN(CC)CC)C(=O)N(C)[C@@H](C(C)C)C(=O)N[C@@H](C(C)C)C(=O)N(C)[C@@H](CC(C)C)C(=O)N[C@@H](C)C(=O)N[C@H](C)C(=O)N(C)[C@@H](CC(C)C)C(=O)N(C)[C@@H](CC(C)C)C(=O)N(C)[C@@H](C(C)C)C(=O)N1C` [(R)-2-(N,N-Diethylamino)ethylthio-Sar]-3-[N-MeVal]-4-cyclosporin] (cyclo(A[dA][NMeL][NMeL][NMeV][MeBmt][Abu][X2][NMeV]V[NMeL])): where the note is “Table 10, HCV replicon”, the EC50 came to 0.04 µM.
Consider `C/C=C/C[C@@H](C)[C@@H](O)[C@H]1C(=O)N[C@@H](CC)C(=O)N(C)[C@@H](SCCN(CC)CC)C(=O)N(C)[C@@H](C(C)C)C(=O)N[C@@H](C(C)C)C(=O)N(C)[C@@H](CC(C)C)C(=O)N[C@@H](C)C(=O)N[C@H](C)C(=O)N(C)[C@@H](CC(C)C)C(=O)N(C)[C@@H](CC(C)C)C(=O)N(C)[C@@H](C(C)C)C(=O)N1C` [(S)-2-(N,N-Diethylamino)ethylthio-Sar]-3-[N-MeVal]-4-cyclosporin] (cyclo(A[dA][NMeL][NMeL][NMeV][MeBmt][Abu][X7][NMeV]V[NMeL])), for which, under “Table 10, HCV replicon”, the concentration for a half-maximal effect (EC50) came out at 3.66 µM.
The same measure, in the same setting: to `CC=CCC(C)C(O)C1C(=O)NC(CC)C(=O)N(C)C(SCCN(CC(C)C)C(C)C)C(=O)N(C)C(CC(C)C)C(=O)NC(C(C)C)C(=O)N(C)C(CC(C)C)C(=O)NC(C)C(=O)NC(C)C(=O)N(C)C(CC(C)C)C(=O)N(C)C(CC(C)C)C(=O)N(C)C(C(C)C)C(=O)N1C` [(S)-2-(N-iso-Butyl-N-iso-propylamino)ethylthio-Sar]-3-cyclosporin] belongs 4.65 µM.
Consider `C/C=C/C[C@@H](C)[C@@H](O)[C@H]1C(=O)N[C@@H](CC)C(=O)N(C)[C@H](SCCN(CC)CC)C(=O)N(C)[C@@H](C(C)CC)C(=O)N[C@@H](C(C)C)C(=O)N(C)[C@@H](CC(C)C)C(=O)N[C@@H](C)C(=O)N[C@H](C)C(=O)N(C)[C@@H](CC(C)C)C(=O)N(C)[C@@H](CC(C)C)C(=O)N(C)[C@@H](C(C)C)C(=O)N1C` (stereo partly drawn) [[(R)-2-(N,N-Diethylamino)ethylthio-Sar]-3-[NMeIle]-4-cyclosporin] (cyclo(A[dA][NMeL][NMeL][NMeV][MeBmt][Abu][X2][NMeIle(3ξ)]V[NMeL])), for which the EC50 (Hepatitis C virus, Huh-7, Table 10, HCV replicon) was determined as 0.04 µM.
Turning to `C/C=C/C[C@@H](C)[C@@H](O)[C@H]1C(=O)N[C@@H](CC)C(=O)N(C)[C@H](SCCCN(CC)CC)C(=O)N(C)[C@@H](CC(C)(C)O)C(=O)N[C@@H](C(C)C)C(=O)N(C)[C@@H](CC(C)C)C(=O)N[C@@H](C)C(=O)N[C@H](C)C(=O)N(C)[C@@H](CC(C)C)C(=O)N(C)[C@@H](CC(C)C)C(=O)N(C)[C@@H](C(C)C)C(=O)N1C` [[(R)-3-(N,N Diethylamino)propylthio-Sar]-3-[(γ-hydroxy)-NMeLeu]-4-cyclosporin], the EC50 under setting [3] was found to be 0.07 µM.
`C/C=C/C[C@@H](C)[C@@H](O)[C@H]1C(=O)N[C@@H](CC)C(=O)N(C)[C@H](SCCCN(CC)CC)C(=O)N(C)[C@@H](C(C)C)C(=O)N[C@@H](C(C)C)C(=O)N(C)[C@@H](CC(C)C)C(=O)N[C@@H](C)C(=O)N[C@H](C)C(=O)N(C)[C@@H](CC(C)C)C(=O)N(C)[C@@H](CC(C)C)C(=O)N(C)[C@@H](C(C)C)C(=O)N1C` [[(R)-3-(N,N-Diethylamino)propylthio-Sar]-3-[N-MeVal]-4-cyclosporin] (cyclo(A[dA][NMeL][NMeL][NMeV][MeBmt][Abu][X1][NMeV]V[NMeL])): the EC50 under setting [2] stood at 0.07 µM.
Same read-out and setting: next, `C/C=C/C[C@@H](C)[C@@H](O)[C@H]1C(=O)N[C@@H](CC)C(=O)N(C)[C@H](SCCCN(CC)CC)C(=O)N(C)[C@@H](C(C)CC)C(=O)N[C@@H](C(C)C)C(=O)N(C)[C@@H](CC(C)C)C(=O)N[C@@H](C)C(=O)N[C@H](C)C(=O)N(C)[C@@H](CC(C)C)C(=O)N(C)[C@@H](CC(C)C)C(=O)N(C)[C@@H](C(C)C)C(=O)N1C` (stereo partly drawn) [[(R)-3-(N,N-Diethylamino)propylthio-Sar]-3-[NMeIle]-4-cyclosporin] (cyclo(A[dA][NMeL][NMeL][NMeV][MeBmt][Abu][X1][NMeIle(3ξ)]V[NMeL])): 0.08 µM.
In the case of `C/C=C/C[C@@H](C)[C@@H](O)[C@H]1C(=O)N[C@@H](CC)C(=O)N(C)[C@H](SCCCN2CCOCC2)C(=O)N(C)[C@@H](CC(C)(C)O)C(=O)N[C@@H](C(C)C)C(=O)N(C)[C@@H](CC(C)C)C(=O)N[C@@H](C)C(=O)N[C@H](C)C(=O)N(C)[C@@H](CC(C)C)C(=O)N(C)[C@@H](CC(C)C)C(=O)N(C)[C@@H](C(C)C)C(=O)N1C` [[(R)-3-(N-Morpholino)propylthio-Sar]-3-[(γ-hydroxy)-NMeLeu]-4-cyclosporin], the EC50 under setting [3] worked out at 0.05 µM.
Still for that read-out and setting: next, `C/C=C/C[C@@H](C)[C@@H](O)[C@H]1C(=O)N[C@@H](CC)C(=O)N(C)[C@H](SCCCN2CCOCC2)C(=O)N(C)[C@@H](CC(C)(C)OC)C(=O)N[C@@H](C(C)C)C(=O)N(C)[C@@H](CC(C)C)C(=O)N[C@@H](C)C(=O)N[C@H](C)C(=O)N(C)[C@@H](CC(C)C)C(=O)N(C)[C@@H](CC(C)C)C(=O)N(C)[C@@H](C(C)C)C(=O)N1C` [[(R)-3-(N-Morpholino)propylthio-Sar]-3-[(γ-methoxy)-NMeLeu]-4-cyclosporin]: 0.06 µM.
